# In patent publication US11873287B2, “Piperidine-2,6-dione derivatives and ulcerative colitis treating” (TIANJIN HEMAY PHARMACEUTICAL SCI-TECH CO., LTD, priority 2016, dated 2024):
# Key:
# [1] = tested on: DSS-Induced inflammatory Bowel Disease Models in Mice; assay: DSS-induced inflammatory bowel disease model in mice (Biological Example 5, 1.3% DSS); assay type: in vivo, C57BL/6 mice; conditions: 30 mg/Kg i.g. Q.D, 1.3% DSS days 0-5; for inhibition in vivo at 30 mg/kg: Mus musculus, po, read-out: Inhibitory Rate of Colonic Reduction
# Description: (§1) 40 healthy female C57BL/6 mice having weight of 16-19 g were randomly divided into 4 groups in accordance with weight. There were 10 mice in each group (see Table 6 below). The first day of the experiment was recorded as Day 0. The administration regimen and induction regimen were detailed in Table 6. The change in weight of experimental animals was recorded every day. […] Samples of animal colonic tissues were obtained to measure the length. One-way ANOVA analysis of mice weights was performed by SPSS22. Statistical analyses between groups were performed. Mann-Whitney U non-parametric test was performed on the length of colon.
# (§2) The experimental method used in the present biological example is identical to those in Biological Example 3.
# One-way ANOVA analysis of mice body weights and colonic weights per length was performed by SPSS22. Statistical analyses between groups were performed.
# (§3) Calculation Formula of Inhibitory Rate of Colonic Reduction: (Length of Colon in Administration Group−Length of Colon in Model Group)/(Length of Colon in Blank Group−Length of Colon in Model Group)
# [2] = tested on: ICR mice; assay: Acute toxicity experiment of single oral administration in mice; assay type: in vivo; conditions: 1000 mg/Kg single oral dose
# Description: The mice were fasted one day before the experiment. On the day of the experiment, 6 mice (ICR mice, body weight of 19-21 g, three females and three males) were selected in each experiment group. First of all, one female and one male were selected to orally give 1000 mg/Kg, and observed for 5-10 minutes. If there were no obvious side effects, the remaining 4 animals were orally given the same dose, and observed for 10-15 minutes. If no animal died, the animals were placed in a box to balancedly feed for 7 days. The state was observed and the body weight was recorded daily.
# Observation Indexes within 0-15 Minutes After Administration
# Activity: restlessness, hyperactivity
# Nervous system response: tremor, spasm, convulsion, ataxia, posture abnormality, etc.
# Autonomic nerve: exophthalmos, salivation, tears, urination (hematuria), diarrhea, piloerection, breathing, etc.
# Observation Indexes Over 7 Days
# State of Animal: lethargy, hyperactivity, excitement, hair loss, diarrhea, abnormal behavior, death, etc.
# [3] = tested on: DSS-Induced inflammatory Bowel Disease Models in Mice; assay: DSS-induced inflammatory bowel disease model in mice (Biological Example 3, 1.0-1.5% DSS); assay type: in vivo, C57BL/6 mice; conditions: 30 mg/Kg i.g. Q.D; for Average Length of Colon (Mean ± SD) / Inhibitory Rate of Colonic Reduction: DSS 1.0% days 0-4, 1.5% days 5-9
# Description: as §1, §3
# [4] = tested on: DSS-Induced inflammatory Bowel Disease Models in Mice; assay: DSS-induced inflammatory bowel disease model in mice (Biological Example 4, 1.3% DSS); assay type: in vivo, C57BL/6 mice; conditions: 30 mg/Kg i.g. Q.D
# Description: as §1, §2, §3
Compound,"Length (cm, Mean ± SD) of colon [1]",inhibition in vivo at 30 mg/kg [1],Daily Body Weight of Tested Female Mice (Mean ± SD) ([2]; Day 1),Daily Body Weight of Tested Male Mice (Mean ± SD) ([2]; Day 1),Daily Body Weight of Tested Female Mice (Mean ± SD) ([2]; Day 2),Daily Body Weight of Tested Male Mice (Mean ± SD) ([2]; Day 2),Daily Body Weight of Tested Female Mice (Mean ± SD) ([2]; Day 3),Daily Body Weight of Tested Male Mice (Mean ± SD) ([2]; Day 3),Daily Body Weight of Tested Female Mice (Mean ± SD) ([2]; Day 4),Daily Body Weight of Tested Male Mice (Mean ± SD) ([2]; Day 4),Daily Body Weight of Tested Female Mice (Mean ± SD) ([2]; Day 5),Daily Body Weight of Tested Male Mice (Mean ± SD) ([2]; Day 5),Daily Body Weight of Tested Female Mice (Mean ± SD) ([2]; Day 6),Daily Body Weight of Tested Male Mice (Mean ± SD) ([2]; Day 6),Daily Body Weight of Tested Female Mice (Mean ± SD) ([2]; Day 7),Daily Body Weight of Tested Male Mice (Mean ± SD) ([2]; Day 7),other results
"COCCCCN1C(=O)CCC(N2C(=O)c3cccc(N)c3C2=O)C1=O (stereo not drawn) [Example 22, 4-amino-2-(1-(4-methoxybutyl)-2,6-dioxopiperidin-3-yl)isoindolin-1,3-dione]",6.9 ± 0.4 cm,100%,18.5 ± 0.6 g,17.1 ± 0.3 g,21.8 ± 0.3 g,22.9 ± 0.8 g,22.9 ± 0.4 g,23.5 ± 0.9 g,24.0 ± 1.0 g,25.2 ± 0.5 g,25.0 ± 0.4 g,27.2 ± 1.9 g,25.3 ± 0.6 g,27.1 ± 1.8 g,25.6 ± 0.2 g,27.4 ± 1.9 g,–
"COCCN1C(=O)CCC(C)(N2C(=O)c3cccc(N)c3C2=O)C1=O (stereo not drawn) [Example 15, 4-amino-2-(1-(2-methoxyethyl)-3-methyl-2,6-dioxopiperidin-3-yl)isoindolin-1,3-dione]",6.6 ± 0.4 cm,72.7%,–,–,–,–,–,–,–,–,–,–,–,–,–,–,–
"COCCN1C(=O)CCC(N2C(=O)c3ccc(OC)c(N)c3C2=O)C1=O (stereo not drawn) [Example 25, 4-amino-5-methoxy-2-(1-(2-methoxyethyl)-2,6-dioxopiperidin-3-yl)-isoindolin-1,3-dione]",6.7 ± 0.5 cm,81.8%,–,–,–,–,–,–,–,–,–,–,–,–,–,–,–
"COCCN1C(=O)CCC(N2C(=O)c3ccc(N)cc3C2=O)C1=O (stereo not drawn) [Example 7, 5-amino-2-(1-(2-methoxyethyl)-2,6-dioxopiperidin-3-yl)isoindolin-1,3-dione]",–,–,–,–,–,–,–,–,–,–,–,–,–,–,–,–,body weights compared with model control group [3]: higher than that of the model control group; Average Length of Colon (Mean ± SD) [3]: 6.4 ± 0.4 cm; Inhibitory Rate of Colonic Reduction [3]: 63.6%; Body Weights of Experimental Mice (Mean ± SD) ([3]; Day 0): 17.4 ± 0.8 g; Body Weights of Experimental Mice (Mean ± SD) ([3]; Day 1): 17.5 ± 0.7 g; Body Weights of Experimental Mice (Mean ± SD) ([3]; Day 2): 18.2 ± 0.8 g; Body Weights of Experimental Mice (Mean ± SD) ([3]; Day 3): 17.8 ± 0.8 g; Body Weights of Experimental Mice (Mean ± SD) ([3]; Day 4): 17.7 ± 0.7 g; Body Weights of Experimental Mice (Mean ± SD) ([3]; Day 5): 17.9 ± 0.8 g; Body Weights of Experimental Mice (Mean ± SD) ([3]; Day 6): 17.8 ± 0.8 g; Body Weights of Experimental Mice (Mean ± SD) ([3]; Day 7): 17.9 ± 0.8 g; Body Weights of Experimental Mice (Mean ± SD) ([3]; Day 8): 17.4 ± 0.7 g; Body Weights of Experimental Mice (Mean ± SD) ([3]; Day 9): 17.4 ± 0.7 g; Body Weights of Experimental Mice (Mean ± SD) ([3]; Day 10): 16.8 ± 0.9 g; Body Weights of Experimental Mice (Mean ± SD) ([3]; Day 11): 16.8 ± 1.0 g; Body Weights of Experimental Mice (Mean ± SD) ([3]; Day 12): 17.3 ± 1.0 g
"COCCN1C(=O)CCC(N2C(=O)c3cccc(F)c3C2=O)C1=O (stereo not drawn) [Example 4, 4-fluoro-2-(1-(2-methoxyethyl)-2,6-dioxopiperidin-3-yl)isoindolin-1,3-dione]",–,–,18.4 ± 0.4 g,17.6 ± 0.2 g,21.8 ± 0.5 g,22.2 ± 0.3 g,23.2 ± 0.6 g,23.6 ± 0.6 g,23.5 ± 1.2 g,24.7 ± 0.6 g,24.7 ± 0.9 g,26.7 ± 0.4 g,24.2 ± 1.2 g,27.6 ± 0.8 g,24.0 ± 0.8 g,28.2 ± 0.1 g,body weights compared with model control group [3]: higher than that of the model control group; Average Length of Colon (Mean ± SD) [3]: 6.3 ± 0.3 cm; Inhibitory Rate of Colonic Reduction [3]: 54.5%; Body Weights of Experimental Mice (Mean ± SD) ([3]; Day 0): 17.4 ± 1.3 g; Body Weights of Experimental Mice (Mean ± SD) ([3]; Day 1): 17.6 ± 1.1 g; Body Weights of Experimental Mice (Mean ± SD) ([3]; Day 2): 18.0 ± 0.9 g; Body Weights of Experimental Mice (Mean ± SD) ([3]; Day 3): 17.8 ± 1.0 g; Body Weights of Experimental Mice (Mean ± SD) ([3]; Day 4): 17.9 ± 0.9 g; Body Weights of Experimental Mice (Mean ± SD) ([3]; Day 5): 18.1 ± 1.1 g; Body Weights of Experimental Mice (Mean ± SD) ([3]; Day 6): 17.7 ± 0.9 g; Body Weights of Experimental Mice (Mean ± SD) ([3]; Day 7): 18.1 ± 0.9 g; Body Weights of Experimental Mice (Mean ± SD) ([3]; Day 8): 17.8 ± 0.8 g; Body Weights of Experimental Mice (Mean ± SD) ([3]; Day 9): 17.6 ± 0.8 g; Body Weights of Experimental Mice (Mean ± SD) ([3]; Day 10): 17.0 ± 0.7 g; Body Weights of Experimental Mice (Mean ± SD) ([3]; Day 11): 16.7 ± 0.7 g; Body Weights of Experimental Mice (Mean ± SD) ([3]; Day 12): 17.0 ± 0.9 g
"Nc1cccc2c1C(=O)N(C1CCC(=O)N(CCO)C1=O)C2=O (stereo not drawn) [Example 6, 4-amino-2-(1-(2-hydroxyethyl)-2,6-dioxopiperidin-3-yl)isoindolin-1,3-dione]",–,–,17.5 ± 0.9 g,18.4 ± 0.6 g,21.5 ± 0.9 g,21.5 ± 0.9 g,21.6 ± 1.3 g,21.6 ± 1.3 g,22.0 ± 1.2 g,25.5 ± 0.5 g,22.3 ± 1.9 g,25.9 ± 0.9 g,22.4 ± 2.3 g,26.9 ± 1.1 g,22.9 ± 2.0 g,27.1 ± 1.1 g,Average Length of Colon (Mean ± SD) ([4]; 1.3% DSS days 0-5): 6.9 ± 0.3 cm; Inhibitory Rate of Colonic Reduction ([4]; 1.3% DSS days 0-5): 66.7%; Weights of Experimental Mice (Mean ± SD) ([4]; Day 0): 19.8 ± 0.6 g; Weights of Experimental Mice (Mean ± SD) ([4]; Day 1): 19.9 ± 0.7 g; Weights of Experimental Mice (Mean ± SD) ([4]; Day 2): 19.7 ± 0.7 g; Weights of Experimental Mice (Mean ± SD) ([4]; Day 3): 20.0 ± 0.6 g; Weights of Experimental Mice (Mean ± SD) ([4]; Day 4): 20.0 ± 0.6 g; Weights of Experimental Mice (Mean ± SD) ([4]; Day 5): 19.9 ± 0.7 g; Weights of Experimental Mice (Mean ± SD) ([4]; Day 6): 19.5 ± 0.6 g; Weights of Experimental Mice (Mean ± SD) ([4]; Day 7): 19.4 ± 0.8 g; Weights of Experimental Mice (Mean ± SD) ([4]; Day 8): 19.5 ± 0.7 g; Weights of Experimental Mice (Mean ± SD) ([4]; Day 9): 19.6 ± 1.1 g; Summary of toxic response of tested animals in 7 Days ([2]; Female): Abnormality was not observed in 7 days of the test; Summary of toxic response of tested animals in 7 Days ([2]; Male): Abnormality was not observed in 7 days of the test
"COCCN1C(=O)CCC(N2C(=O)c3ccc(F)cc3C2=O)C1=O (stereo not drawn) [Example 21, 5-fluoro-2-(1-(2-methoxyethyl)-2,6-dioxopiperidin-3-yl)-isoindolin-1,3-dione]",6.9 ± 0.4 cm,100%,–,–,–,–,–,–,–,–,–,–,–,–,–,–,–
